This note sets out measurements from ChEMBL document CHEMBL1129061, “Inhibition of human glutathione reductase by 10-arylisoalloxazines: crystalline, kinetic, and electrochemical studies” (J Med Chem, 1996).

For the assay, the target named is T1, Glutathione reductase, mitochondrial (Homo sapiens, UniProt P00390).
T1 sequence (P00390 whole entry): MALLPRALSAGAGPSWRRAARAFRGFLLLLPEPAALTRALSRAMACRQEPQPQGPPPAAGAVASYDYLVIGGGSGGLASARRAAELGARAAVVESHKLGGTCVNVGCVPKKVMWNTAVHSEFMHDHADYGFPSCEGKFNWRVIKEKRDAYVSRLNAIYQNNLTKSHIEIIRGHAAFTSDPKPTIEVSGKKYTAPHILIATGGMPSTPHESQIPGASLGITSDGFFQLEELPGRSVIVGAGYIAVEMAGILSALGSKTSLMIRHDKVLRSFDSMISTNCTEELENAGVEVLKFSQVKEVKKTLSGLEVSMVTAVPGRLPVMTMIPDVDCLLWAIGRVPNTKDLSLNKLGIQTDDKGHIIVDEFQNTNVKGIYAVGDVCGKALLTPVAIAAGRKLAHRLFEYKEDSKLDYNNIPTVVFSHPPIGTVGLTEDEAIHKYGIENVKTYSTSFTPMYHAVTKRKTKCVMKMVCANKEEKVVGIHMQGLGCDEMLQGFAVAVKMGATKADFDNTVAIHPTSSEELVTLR
The assay can be described thus: Inhibitory activity against human glutathione reductase in presence of 100 uM GSSG.

Broadly, the IC50 is the concentration that inhibits the measured activity by half. For the compound `Cn1c(=O)nc2n(-c3c(F)c(F)c(F)c(F)c3F)c3ccccc3nc-2c1=O`, the IC50 was less than 1 µM.

`Cn1c(=O)nc2n(-c3ccncc3)c3ccccc3nc-2c1=O`: the IC50 turned out to be 3 µM.

Consider `Cn1c(=O)nc2n(-c3cccnc3)c3ccccc3nc-2c1=O`, for which the IC50 came to 8 µM.

On to `CCOC(=O)Cn1c(=O)nc2n(-c3ccc(Cl)cc3)c3ccccc3nc-2c1=O`, for which the IC50 worked out at 18 µM.

For `Cn1c(=O)nc2n(-c3cc(C(F)(F)F)cc(C(F)(F)F)c3)c3ccccc3nc-2c1=O`, the IC50 came to 5 µM.

For the compound `O=c1nc2n(-c3cc(C(F)(F)F)cc(C(F)(F)F)c3)c3ccccc3nc-2c(=O)[nH]1`, the half-inhibitory concentration (IC50) came to 3.5 µM.

As to `O=C(O)Cn1c(=O)nc2n(-c3cc(C(F)(F)F)cc(C(F)(F)F)c3)c3ccccc3nc-2c1=O`, the IC50 stood at 25 µM.

On to `CCOC(=O)Cn1c(=O)nc2n(-c3cc(Cl)cc(Cl)c3)c3ccccc3nc-2c1=O`, for which the IC50 turned out to be 7 µM.

On to `O=c1nc2n(-c3cccc(C(F)(F)F)c3)c3ccccc3nc-2c(=O)[nH]1`, for which the IC50 is 1 µM.

For `Cn1c(=O)nc2n(-c3ccc(Cl)cc3)c3cc(F)ccc3nc-2c1=O`, the IC50 worked out at 1 µM.

Turning to `CCOC(=O)Cn1c(=O)nc2n(-c3cccc(C(F)(F)F)c3)c3ccccc3nc-2c1=O`, the IC50 is 8 µM.

For `Cn1c(=O)nc2n(-c3cccc(C(F)(F)F)c3)c3ccccc3nc-2c1=O`, the IC50 stood at 1 µM.

As to `Cn1c(=O)nc2n(-c3cccc4cc5ccccc5cc34)c3ccccc3nc-2c1=O`, the IC50 turned out to be 4 µM.

For `Cn1c(=O)nc2n(-c3cccc4ccccc34)c3ccccc3nc-2c1=O`, the IC50 turned out to be 2 µM.

Regarding `O=C(O)Cn1c(=O)nc2n(-c3cccc(C(F)(F)F)c3)c3ccccc3nc-2c1=O`, the IC50 turned out to be 20 µM.

As for `O=c1nc2n(-c3cc(Cl)cc(Cl)c3)c3ccccc3nc-2c(=O)[nH]1`, the IC50 was less than 1 µM.

In the case of `Cn1c(=O)nc2n(-c3ccc(Cl)cc3)c3ccccc3nc-2c1=O`, the IC50 was less than 1 µM.

With `O=C(O)Cn1c(=O)nc2n(-c3cc(Cl)cc(Cl)c3)c3ccccc3nc-2c1=O`, the IC50 worked out at 14 µM.

As for `Cn1c(=O)nc2n(-c3ccccc3)c3ccccc3nc-2c1=O`, the IC50 is 2 µM.

For `Cn1c(=O)nc2n(-c3ccc(Cl)cc3)c3cc(N=[N+]=[N-])ccc3nc-2c1=O`, the IC50 came out at 2.5 µM.

As to `CCOC(=O)Cn1c(=O)nc2n(-c3cc(C(F)(F)F)cc(C(F)(F)F)c3)c3ccccc3nc-2c1=O`, the IC50 stood at 100 µM.

With `O=c1nc2n(-c3c(F)c(F)c(F)c(F)c3F)c3ccccc3nc-2c(=O)[nH]1`, the IC50 was 3.5 µM.

Take `O=c1nc2n(-c3ccc(Cl)cc3)c3ccccc3nc-2c(=O)[nH]1`: the IC50 was less than 1 µM.

Turning to `Cn1c(=O)nc2n(-c3cc(Cl)cc(Cl)c3)c3ccccc3nc-2c1=O`, the IC50 was less than 1 µM.

As to `Cn1c(=O)nc2n(-c3cc[n+](C)cc3)c3ccccc3nc-2c1=O`, the IC50 was found to be 40 µM.

Consider `O=C(O)Cn1c(=O)nc2n(-c3ccc(Cl)cc3)c3ccccc3nc-2c1=O`, for which the IC50 was 12 µM.
